# Reference: ChEMBL document CHEMBL1128207 (J Med Chem, 1995)
# Molecular target: Progesterone receptor (Oryctolagus cuniculus) (UniProt P06186)
# Experiment: Binding affinity towards rabbit progesterone receptor; call rule not given here
row,IC50 [µM],SMILES
1,0.27,O=C(c1ccc([N+](=O)[O-])cc1)N1CCCC(c2ccc(Cl)cc2)=N1
2,0.1,O=C(c1ccc([N+](=O)[O-])cc1)N1CCCC(c2ccc(Cl)c(Cl)c2)=N1
3,4,O=C(c1ccc(Cl)cc1)N1CCCC(c2ccc(Cl)cc2)=N1
4,4,O=C(c1ccc(Cl)c(Cl)c1)N1CCCC(c2ccccc2)=N1
5,0.47,O=C(c1cc(Cl)cc(Cl)c1)N1CCCC(c2ccc(Br)cc2)=N1
6,0.25,O=C(c1ccc(Cl)c(Cl)c1)N1CCCC(c2ccc(F)cc2)=N1
7,1.02,O=C(c1ccc([N+](=O)[O-])cc1)N1CCCC(c2ccc(F)cc2)=N1
8,0.1,O=C(c1ccc(Cl)c(Cl)c1)N1CCCC(c2ccc(Cl)c(Cl)c2)=N1

# Molecular target: Progesterone receptor (Oryctolagus cuniculus) (UniProt P06186)
# Experiment: Binding affinity towards rabbit progesterone receptor; not active
row,IC50,SMILES
1,Not Active,COc1ccc(C2=NN(C(=O)c3ccc(Cl)cc3)CCC2)cc1
2,Not Active,O=C(c1ccccc1)N1CCCC(c2ccccc2)=N1
3,Not Active,Cc1ccc(C(=O)N2CCCC(c3ccccc3)=N2)cc1
4,Not Active,O=C(c1ccccc1)N1CCCC(c2ccc(Cl)cc2)=N1
5,Not Active,COc1ccc(C(=O)N2CCCC(c3ccccc3)=N2)cc1
6,Not Active,COc1ccc(C(=O)N2CCCC(c3ccc(OC)cc3)=N2)cc1
7,Not Active,COc1ccc(C2=NN(C(=O)c3ccc(C)cc3)CCC2)cc1
8,Not Active,CC(C)(C)c1ccc(C(=O)N2CCCC(c3ccccc3)=N2)cc1
9,Not Active,COc1ccc(C2=NN(C(=O)c3cccc(Cl)c3)CCC2)cc1
10,Not Active,O=C(c1ccc(Br)cc1)N1CCCC(c2ccccc2)=N1
11,Not Active,Cc1ccc(C(=O)N2CCCC(c3ccc(Cl)cc3)=N2)cc1
12,Not Active,COc1ccc(C(=O)N2CCCC(c3ccc(Cl)cc3)=N2)cc1
13,Not Active,COc1ccc(C2=NN(C(=O)c3ccccc3)CCC2)cc1
14,Not Active,COc1ccc(C2=NN(C(=O)c3ccc(Br)cc3)CCC2)cc1
15,Not Active,O=C(c1ccc(Cl)cc1)N1CCCC(c2ccccc2)=N1
16,Not Active,O=C(c1cccc(Cl)c1)N1CCCC(c2ccc(Cl)cc2)=N1
17,Not Active,O=C(c1cccc(Cl)c1)N1CCCC(c2ccccc2)=N1
18,Not Active,COc1ccc(C2=NN(C(=O)c3ccc(C(C)(C)C)cc3)CCC2)cc1
19,Not Active,CC(C)(C)c1ccc(C(=O)N2CCCC(c3ccc(Cl)cc3)=N2)cc1
20,Not Active,COc1ccc(C2=NN(C(=O)c3ccc(Cl)c(Cl)c3)CCC2)cc1
